pIC50: −log10 of the molar value.
How the values were obtained:
Assay type in all cases: biochemical
JAK3 = target: T1, JAK3 (Homo sapiens, UniProt P52333); assay: JAK3 Assay (Caliper EZ Reader, fluoresceinated peptide); conditions: ATP 3.5 μM; JAK3 0.5 nM; 30 minutes at room temperature; read-out: JAK3 inhibition
T1 sequence (P52333 1-1124): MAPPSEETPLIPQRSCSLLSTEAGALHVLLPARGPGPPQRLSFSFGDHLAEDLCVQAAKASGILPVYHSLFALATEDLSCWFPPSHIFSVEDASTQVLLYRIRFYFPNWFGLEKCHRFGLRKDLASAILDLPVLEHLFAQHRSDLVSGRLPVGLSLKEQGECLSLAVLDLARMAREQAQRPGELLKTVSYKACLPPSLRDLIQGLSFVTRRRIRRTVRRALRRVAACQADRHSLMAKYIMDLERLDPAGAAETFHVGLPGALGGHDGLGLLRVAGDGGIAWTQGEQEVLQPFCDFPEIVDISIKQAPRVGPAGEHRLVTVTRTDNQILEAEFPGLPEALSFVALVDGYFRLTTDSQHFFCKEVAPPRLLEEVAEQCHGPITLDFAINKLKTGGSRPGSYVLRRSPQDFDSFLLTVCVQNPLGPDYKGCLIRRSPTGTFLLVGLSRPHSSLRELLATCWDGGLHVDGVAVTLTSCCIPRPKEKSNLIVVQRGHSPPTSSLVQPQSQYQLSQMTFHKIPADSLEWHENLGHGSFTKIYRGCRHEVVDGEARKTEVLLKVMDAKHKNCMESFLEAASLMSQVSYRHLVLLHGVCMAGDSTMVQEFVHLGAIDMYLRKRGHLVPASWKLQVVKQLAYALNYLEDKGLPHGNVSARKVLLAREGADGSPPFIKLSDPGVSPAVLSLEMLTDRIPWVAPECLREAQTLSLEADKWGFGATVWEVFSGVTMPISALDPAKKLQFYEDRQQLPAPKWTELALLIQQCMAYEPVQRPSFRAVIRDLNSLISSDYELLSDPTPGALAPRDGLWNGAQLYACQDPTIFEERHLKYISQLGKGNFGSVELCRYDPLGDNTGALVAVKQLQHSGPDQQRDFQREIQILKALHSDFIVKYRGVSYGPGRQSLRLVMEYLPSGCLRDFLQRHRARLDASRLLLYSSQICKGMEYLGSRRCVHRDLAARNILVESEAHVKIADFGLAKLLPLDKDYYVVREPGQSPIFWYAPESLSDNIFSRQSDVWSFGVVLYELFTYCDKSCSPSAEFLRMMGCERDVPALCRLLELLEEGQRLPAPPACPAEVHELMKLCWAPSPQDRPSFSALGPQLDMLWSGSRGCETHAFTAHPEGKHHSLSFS
Description: JAK3 Assay 384-well plates in the left foot butoxy measured progress. The final assay volume was 25 μL, 250 nL 100× compounds, 10 μL enzyme mix and 15 μL substrate mix (fluoresceinated peptide and ATP) in assay buffer (50 mM HEPES (pH 7.5), 10 mM MgCl2, 0.01% TritonX-100, 0.01% Brij35, 0.5 mM EGTA and 2 mM DTT) prepared as test compound. By mixing the JAK3 with substrates and test compounds to start the reaction. The reaction mixture was incubated for 30 minutes at room temperature, then added 30 μL stop buffer for each sample to terminate the reaction with 50 mM EDTA. After termination of the kinase reaction, the proportion of phosphorylated product was determined as a fraction of total peptide substrate using Caliper EZ Reader II. Inhibition data were calculated by comparison with 100% of the reaction mixture without enzyme inhibition and vehicle-only reaction mixture billion % inhibition compared. The final concentration of reagents in the assays is: ATP, 3.5 μM; JAK3 fluorescent peptide (5-FAM-EEPLYWSFPAKKK-CONH2), 3 μM; JAK3, 0.5 nM; and DMSO, 1%. Dose response curve were generated to determine the concentration required for IC50 of JAK3 activity.

JAK2 = JAK2 (Homo sapiens, UniProt O60674); assay: JAK2 Assay (Caliper EZ Reader, fluoresceinated peptide); conditions: ATP 11.4 μM; JAK2 0.25 nM; 15 minutes at room temperature; read-out: JAK2 inhibition
Sequence of JAK2 (O60674 whole entry, species assumed): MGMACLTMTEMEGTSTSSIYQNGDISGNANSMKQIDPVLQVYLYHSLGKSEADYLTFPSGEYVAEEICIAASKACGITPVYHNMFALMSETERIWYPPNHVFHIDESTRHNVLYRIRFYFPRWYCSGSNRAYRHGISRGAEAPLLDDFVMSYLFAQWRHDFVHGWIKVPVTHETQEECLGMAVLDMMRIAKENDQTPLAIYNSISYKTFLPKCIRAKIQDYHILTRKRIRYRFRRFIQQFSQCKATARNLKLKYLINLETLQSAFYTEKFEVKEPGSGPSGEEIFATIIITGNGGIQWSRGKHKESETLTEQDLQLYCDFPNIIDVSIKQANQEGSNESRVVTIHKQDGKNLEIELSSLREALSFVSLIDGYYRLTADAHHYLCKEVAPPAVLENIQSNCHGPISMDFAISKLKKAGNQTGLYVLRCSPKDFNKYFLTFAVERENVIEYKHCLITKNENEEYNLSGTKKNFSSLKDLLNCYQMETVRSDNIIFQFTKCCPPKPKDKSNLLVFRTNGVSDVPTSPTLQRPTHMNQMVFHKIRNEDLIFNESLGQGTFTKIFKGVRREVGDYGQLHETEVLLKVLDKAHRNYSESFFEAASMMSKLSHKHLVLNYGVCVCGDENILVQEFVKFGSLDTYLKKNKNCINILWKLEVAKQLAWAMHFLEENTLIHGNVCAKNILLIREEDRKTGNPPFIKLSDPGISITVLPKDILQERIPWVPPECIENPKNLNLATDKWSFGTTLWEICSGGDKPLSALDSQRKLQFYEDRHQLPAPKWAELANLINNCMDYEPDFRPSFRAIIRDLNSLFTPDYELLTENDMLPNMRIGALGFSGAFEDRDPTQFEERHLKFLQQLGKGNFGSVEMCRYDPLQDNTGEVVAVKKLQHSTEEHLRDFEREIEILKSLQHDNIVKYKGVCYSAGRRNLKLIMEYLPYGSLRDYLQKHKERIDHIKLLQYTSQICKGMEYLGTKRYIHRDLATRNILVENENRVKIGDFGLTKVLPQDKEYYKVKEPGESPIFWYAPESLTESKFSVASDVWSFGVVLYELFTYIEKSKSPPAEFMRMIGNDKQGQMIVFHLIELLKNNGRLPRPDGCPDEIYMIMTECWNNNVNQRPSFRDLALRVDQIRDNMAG
Description: JAK2 Assay 384-well plates in the left foot butoxy measured progress. The final assay volume was 25 μL, 250 nL 100× compounds, 10 μL enzyme mix and 15 μL substrate mix (fluoresceinated peptide and ATP) in assay buffer (50 mM HEPES (pH 7.5), 10 mM MgCl2, 0.01% TritonX-100, 0.01% Brij35, 0.5 mM EGTA and 2 mM DTT) prepared as test compound By mixing the JAK2 with substrates and test compounds to start the reaction. The reaction mixture was incubated for 15 minutes at room temperature, then added 30 μL stop buffer for each sample to terminate the reaction with 50 mM EDTA. After termination of the kinase reaction, the proportion of phosphorylated product was determined as a fraction of total peptide substrate using Caliper EZ Reader 1 Inhibition data were calculated by comparison with 100% of the reaction mixture without enzyme inhibition and vehicle-only reaction mixture billion % inhibition compared. The final concentration of reagents in the assays is: ATP, 11.4 μM; JAK2 fluorescent peptide (5-FAM-EEPLYWSFPAKKK-CONH2), 3 μM; JAK2, 0.25 nM; and DMSO, 1%. Dose response curve were generated to determine the concentration required for IC50 of JAK2 activity.

JAK1 = JAK1 (Homo sapiens, UniProt P23458); assay: JAK Kinase Assay (JAK1, Caliper EZ Reader, fluoresceinated peptide); conditions: ATP 76.5 μM; JAK1 10 nM; 120 minutes at room temperature; read-out: JAK1 inhibition
Sequence of JAK1 (P23458 whole entry, species assumed): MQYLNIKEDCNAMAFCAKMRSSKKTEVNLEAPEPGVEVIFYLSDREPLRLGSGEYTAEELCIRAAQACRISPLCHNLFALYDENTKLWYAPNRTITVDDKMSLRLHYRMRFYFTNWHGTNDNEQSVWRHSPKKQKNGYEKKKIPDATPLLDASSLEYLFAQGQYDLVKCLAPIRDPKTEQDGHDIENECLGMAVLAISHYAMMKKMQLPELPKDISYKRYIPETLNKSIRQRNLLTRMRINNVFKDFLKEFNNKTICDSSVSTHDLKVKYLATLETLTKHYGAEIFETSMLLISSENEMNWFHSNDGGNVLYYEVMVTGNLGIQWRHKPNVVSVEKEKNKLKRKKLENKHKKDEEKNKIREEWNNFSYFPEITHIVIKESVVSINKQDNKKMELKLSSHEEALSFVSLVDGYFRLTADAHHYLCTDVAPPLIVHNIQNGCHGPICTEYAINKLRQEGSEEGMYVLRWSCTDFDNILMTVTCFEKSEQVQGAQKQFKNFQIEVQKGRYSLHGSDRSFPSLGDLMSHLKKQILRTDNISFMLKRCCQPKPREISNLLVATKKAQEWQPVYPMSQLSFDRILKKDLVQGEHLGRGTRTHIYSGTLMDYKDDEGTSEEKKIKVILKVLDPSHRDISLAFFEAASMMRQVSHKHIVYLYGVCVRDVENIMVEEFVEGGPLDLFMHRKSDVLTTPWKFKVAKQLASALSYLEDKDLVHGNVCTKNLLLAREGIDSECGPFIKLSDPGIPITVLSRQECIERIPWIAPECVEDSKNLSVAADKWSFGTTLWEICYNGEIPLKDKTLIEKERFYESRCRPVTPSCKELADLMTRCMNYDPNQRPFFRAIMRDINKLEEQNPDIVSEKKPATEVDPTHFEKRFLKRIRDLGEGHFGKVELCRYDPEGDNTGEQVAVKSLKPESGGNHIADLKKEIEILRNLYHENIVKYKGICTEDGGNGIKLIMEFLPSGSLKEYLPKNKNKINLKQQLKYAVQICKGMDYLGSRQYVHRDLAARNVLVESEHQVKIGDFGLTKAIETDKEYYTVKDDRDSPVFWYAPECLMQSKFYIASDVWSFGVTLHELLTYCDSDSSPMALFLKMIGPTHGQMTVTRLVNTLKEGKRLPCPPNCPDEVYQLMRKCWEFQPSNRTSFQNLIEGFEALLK
Description: JAK Kinase Assay 384-well plates in the left foot butoxy measured progress. The final assay volume was 25 μL, 250 nL 100× compounds, 10 μL enzyme mix and 15 μL substrate mix (fluoresceinated peptide and ATP) in assay buffer (20 mM HEPES (pH 7.5), 10 mM MgCl2, […], 0.5 mM EGTA and 2 mM DTT) prepared as test compound. By mixing the JAK1 with substrates and test compounds to start the reaction. There action mixture was incubated for 120 minutes at room temperature, then added 30 μL stop buffer for each sample to terminate the reaction with 50 mM EDTA. After termination of the kinase reaction, the proportion of phosphorylated product was determined as a fraction of total peptide substrate using Caliper EZ Reader II. Inhibition data were calculated by comparison with 100% of the reaction mixture without enzyme inhibition and vehicle-only reaction mixture billion % inhibition compared. The final concentration of reagents in the assays is: ATP, 76.5 μM; JAK1 fluorescent peptide (5-FAM-EEPLYWSFPAKKK-CONH2), 3 μM; JAK1, 10 nM, and DMSO, 1%. Dose response curve were generated to determine the concentration required for IC50 of JAK activity.

SMILES	pIC50 (JAK3)	pIC50 (JAK2)	pIC50 (JAK1)
CN(c1ncnc2[nH]ccc12)C1CC2(C1)CN(C(=O)CC#N)C2 [Compound 2, 3-(6-(methyl(7H-pyrrolo[2,3-d]pyrimidin-4-yl)amino)-2-azaspiro[3.3]heptan-2-yl)-3-oxopropanenitrile]	5.00 to 6.00	6.00 to 7.00	6.00 to 7.00
CN(c1ncnc2[nH]ccc12)C1CC2(C1)CN(C(=O)CO)C2 [Compound 3, 2-hydroxy-1-(6-(methyl(7H-pyrrolo[2,3-d]pyrimidin-4-yl)amino)-2-azaspiro[3.3]heptan-2-yl)ethanone]	5.00 to 6.00	6.00 to 7.00	6.00 to 7.00
CC(=O)N1CC2(CC(N(C)c3ncnc4[nH]ccc34)C2)C1 [Compound 4, 1-(6-(methyl(7H-pyrrolo[2,3-d]pyrimidin-4-yl)amino)-2-azaspiro[3.3]heptan-2-yl)ethanone]	≤ 5.00	6.00 to 7.00	6.00 to 7.00
COc1ccc(NC(=O)N2CCC3(CCC(N(C)c4ncnc5[nH]ccc45)CC3)CC2)cc1 [Compound 119, N-(4-methoxyphenyl)-9-(methyl(7H-pyrrolo[2,3-d]pyrimidin-4-yl)amino)-3-azaspiro[5.5]undecane-3-carboxamide]			7.00 to 8.00
COc1cccc(NC(=O)N2CCC3(CCC(N(C)c4ncnc5[nH]ccc45)CC3)CC2)c1 [Compound 120, N-(3-methoxyphenyl)-9-(methyl(7H-pyrrolo[2,3-d]pyrimidin-4-yl)amino)-3-azaspiro[5.5]undecane-3-carboxamide]			≥ 8.00
CN(c1ncnc2[nH]ccc12)C1CCC2(CC1)CCN(C(=O)Nc1ccc(C#N)cc1)CC2 [Compound 121, N-(4-cyanophenyl)-9-(methyl(7H-pyrrolo[2,3-d]pyrimidin-4-yl)amino)-3-azaspiro[5.5]undecane-3-carboxamide]			7.00 to 8.00
CN(c1ncnc2[nH]ccc12)C1CCC2(CC1)CCN(C(=O)Nc1cccc(C#N)c1)CC2 [Compound 122, N-(3-cyanophenyl)-9-(methyl(7H-pyrrolo[2,3-d]pyrimidin-4-yl)amino)-3-azaspiro[5.5]undecane-3-carboxamide]			≥ 8.00
CN(c1ncnc2[nH]ccc12)C1CCC2(CC1)CCN(C(=O)Nc1cccc(C#N)n1)CC2 [Compound 123, N-(6-cyanopyridin-2-yl)-9-(methyl(7H-pyrrolo[2,3-d]pyrimidin-4-yl)amino)-3-azaspiro[5.5]undecane-3-carboxamide]			≥ 8.00
COc1cccc(NC(=O)N2CCC3(CCC(N(C)c4ncnc5[nH]ccc45)CC3)CC2)n1 [Compound 124, N-(6-methoxpyridin-2-yl)-9-(methyl(7H-pyrrolo[2,3-d]pyrimidin-4-yl)amino)-3-azaspiro[5.5]undecane-3-carboxamide]			7.00 to 8.00
CN(c1ncnc2[nH]ccc12)C1CCC2(CC1)CCN(C(=O)Nc1ccc(C#N)cn1)CC2 [Compound 125, N-(5-cyanopyridin-2-yl)-9-(methyl(7H-pyrrolo[2,3-d]pyrimidin-4-yl)amino)-3-azaspiro[5.5]undecane-3-carboxamide]			5.00 to 6.00
Cc1cnc(NC(=O)N2CCC3(CCC(N(C)c4ncnc5[nH]ccc45)CC3)CC2)s1 [Compound 126, 9-(methyl(7H-pyrrolo[2,3-d]pyrimidin-4-yl)amino)-N-(5-methylthiazol-2-yl)-3-azaspiro[5.5]undecane-3-carboxamide]			6.00 to 7.00
CN(c1ncnc2[nH]ccc12)C1CCC2(CC1)CCN(C(=O)Nc1ccn(C)n1)CC2 [Compound 127, 9-(methyl(7H-pyrrolo[2,3-d]pyrimidin-4-yl)amino)-N-(1-methyl-1H-pyrazol-3-yl)-3-azaspiro[5.5]undecane-3-carboxamide]			6.00 to 7.00
Cc1cnc(NC(=O)N2CCC3(CCC(N(C)c4ncnc5[nH]ccc45)CC3)CC2)cn1 [Compound 128, 9-(methyl(7H-pyrrolo[2,3-d]pyrimidin-4-yl)amino)-N-(5-methylpyrazin-2-yl)-3-azaspiro[5.5]undecane-3-carboxamide]			5.00 to 6.00
COc1cnc(NC(=O)N2CCC3(CCC(N(C)c4ncnc5[nH]ccc45)CC3)CC2)cn1 [Compound 129, N-(5-methoxypyrazin-2-yl)-9-(methyl(7H-pyrrolo[2,3-d]pyrimidin-4-yl)amino)-3-azaspiro[5.5]undecane-3-carboxamide]			7.00 to 8.00
COc1ccc(NC(=O)N2CCC3(CCC(N(C)c4ncnc5[nH]ccc45)CC3)CC2)nc1 [Compound 130, N-(5-methoxypyridin-2-yl)-9-(methyl(7H-pyrrolo[2,3-d]pyrimidin-4-yl)amino)-3-azaspiro[5.5]undecane-3-carboxamide]			7.00 to 8.00
CN(c1ncnc2[nH]ccc12)C1CCC2(CC1)CCN(C(=O)Nc1ncc(F)s1)CC2 [Compound 131, N-(5-fluorothiazol-2-yl)-9-(methyl(7H-pyrrolo[2,3-d]pyrimidin-4-yl)amino)-3-azaspiro[5.5]undecane-3-carboxamide]			7.00 to 8.00
CN(c1ncnc2[nH]ccc12)C1CCC2(CC1)CCN(C(=O)Nc1ncc(Cl)s1)CC2 [Compound 132, N-(5-chlorothiazol-2-yl)-9-(methyl(7H-pyrrolo[2,3-d]pyrimidin-4-yl)amino)-3-azaspiro[5.5]undecane-3-carboxamide]			6.00 to 7.00
CN(c1ncnc2[nH]ccc12)C1CCC2(CC1)CCN(C(=O)Nc1ncc(C#N)s1)CC2 [Compound 133, N-(5-cyanothiazol-2-yl)-9-(methyl(7H-pyrrolo[2,3-d]pyrimidin-4-yl)amino)-3-azaspiro[5.5]undecane-3-carboxamide]			≥ 8.00
CN(c1ncnc2[nH]ccc12)C1CCC2(CC1)CCN(C(=O)Nc1nccs1)CC2 [Compound 134, 9-(methyl(7H-pyrrolo[2,3-d]pyrimidin-4-yl)amino)-N-(thiazol-2-yl)-3-azaspiro[5.5]undecane-3-carboxamide]			≥ 8.00

Source: patent US11365188B2, “JAK inhibitors” (priority 2018, dated 2022)
